Source: patent US20230365553A1, “COMPOUNDS AND COMPOSITIONS FOR TREATING CONDITIONS ASSOCIATED WITH STING ACTIVITY” (IFM Due, Inc., priority 2020, published 2023)

Target: T1, STING (Homo sapiens, UniProt Q86WV6, G230A/H232R/R293Q/R71H)
T1 construct: host or cells: THP1-Dual KO-IFNAR2 cells
Experiment: STING reporter assay: luciferase reporter activity in THP1-Dual KO-IFNAR2 cells stimulated with 2′3′cGAMP
Format: cell-based
Settings: 15 μM 2′3′cGAMP, 24h, read-out: hSTING EC50
How it was run: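 THP1-Dual KO-IFNAR2 cells (2×10E6 cells/mL) were exposed to compounds at 0.0017-100 μM, then stimulated with 2′3′cGAMP (15 μM final) transfected via Lipofectamine 2000. After 24h at 37° C., secreted luciferase in supernatant was read by QUANTI-Luc luminescence; EC50 derived from concentration-response.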

T1 sequence (Q86WV6 whole entry R71H/G230A/H232R/R293Q): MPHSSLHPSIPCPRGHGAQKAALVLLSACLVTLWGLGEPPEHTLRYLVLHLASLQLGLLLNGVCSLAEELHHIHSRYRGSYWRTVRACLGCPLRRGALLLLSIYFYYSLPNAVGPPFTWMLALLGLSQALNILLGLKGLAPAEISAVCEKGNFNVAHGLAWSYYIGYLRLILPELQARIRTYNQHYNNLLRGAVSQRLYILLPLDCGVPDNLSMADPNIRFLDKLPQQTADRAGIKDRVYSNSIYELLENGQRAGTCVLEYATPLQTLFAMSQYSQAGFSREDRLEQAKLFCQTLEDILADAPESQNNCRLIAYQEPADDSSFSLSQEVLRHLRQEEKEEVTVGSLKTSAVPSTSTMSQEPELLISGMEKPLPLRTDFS

Row | SMILES | EC50
1 | CN1CCC(C(=O)Nc2c[nH]c3ccc(-c4cnn(-c5ccc(C(F)(F)F)cc5)c4)cc23)CC1=O (stereo not drawn) [Compound 231, 1-methyl-2-oxo-N-(5-(1-(4-(trifluoromethyl)phenyl)-1H-pyrazol-4-yl)-1H-indol-3-yl)piperidine-4-carboxamide] | 1000 to 5000 nM
2 | O=C(Nc1c[nH]c2ccc(-c3cnn(-c4ccc(C(F)(F)F)cc4)c3)cc12)C1(F)CCOCC1 [Compound 233, 4-fluoro-N-(5-(1-(4-(trifluoromethyl)phenyl)-1H-pyrazol-4-yl)-1H-indol-3-yl)tetrahydro-2H-pyran-4-carboxamide] | 200 to 1000 nM
3 | O=C(Nc1c[nH]c2ccc(-c3cnn(-c4ccc(C(F)(F)F)cc4)c3)cc12)C1CC(F)(F)C1 [Compound 236, 3,3-difluoro-N-(5-(1-(4-(trifluoromethyl)phenyl)-1H-pyrazol-4-yl)-1H-indol-3-yl)cyclobutane-1-carboxamide] | 200 to 1000 nM
4 | O=C(Nc1c[nH]c2ccc(-c3cnn(-c4ccc(C(F)(F)F)cc4)c3)cc12)C1CCC(F)(F)CC1 [Compound 237, 4,4-difluoro-N-(5-(1-(4-(trifluoromethyl)phenyl)-1H-pyrazol-4-yl)-1H-indol-3-yl)cyclohexane-1-carboxamide] | 200 to 1000 nM
5 | O=C(Nc1c[nH]c2ccc(-c3cnn(-c4ccc(C(F)(F)F)cc4)c3)cc12)C1(C(F)(F)F)CC1 [Compound 238, 1-(trifluoromethyl)-N-(5-(1-(4-(trifluoromethyl)phenyl)-1H-pyrazol-4-yl)-1H-indol-3-yl)cyclopropane-1-carboxamide] | 1000 to 5000 nM
6 | CS(=O)(=O)CCC(=O)Nc1c[nH]c2ccc(-c3cnn(-c4ccc(C(F)(F)F)cc4)c3)cc12 [Compound 240, 3-(methylsulfonyl)-N-(5-(1-(4-(trifluoromethyl)phenyl)-1H-pyrazol-4-yl)-1H-indol-3-yl)propanamide] | 200 to 1000 nM
7 | C[C@@H](c1cccc(C(F)(F)F)c1)n1cc(-c2ccc3[nH]cc(NC(=O)C4CCC4)c3c2)cn1 [Compound 243, (S)-N-(5-(1-(1-(3-(trifluoromethyl)phenyl)ethyl)-1H-pyrazol-4-yl)-1H-indol-3-yl)cyclobutanecarboxamide] | 200 to 1000 nM
8 | CC(=O)N(C)c1c[nH]c2ccc(-c3cnn(-c4ccc(C(F)(F)F)cc4)c3)cc12 [Compound 246, N-methyl-N-(5-(1-(4-(trifluoromethyl)phenyl)-1H-pyrazol-4-yl)-1H-indol-3-yl)acetamide] | 5000 to 100000 nM
9 | O=C(Nc1c[nH]c2ccc(-c3cnn(-c4ccc(C(F)(F)F)cc4)c3)cc12)C1CN(CC(F)(F)F)C1 [Compound 247, 1-(2,2,2-trifluoroethyl)-N-(5-(1-(4-(trifluoromethyl)phenyl)-1H-pyrazol-4-yl)-1H-indol-3-yl)azetidine-3-carboxamide] | 200 to 1000 nM
10 | CCC(=O)Nc1c[nH]c2ccc(-c3cnn(-c4cnc(CC)cn4)c3)cc12 [Compound 248, N-(5-(1-(5-ethylpyrazin-2-yl)-1H-pyrazol-4-yl)-1H-indol-3-yl)propionamide] | 1000 to 5000 nM
11 | CC(=O)Nc1c[nH]c2ccc(-c3cnn(Cc4cnc(C5CCC(F)(F)CC5)c(F)c4)c3)cc12 [Compound 250, N-(5-(1-((6-(4,4-difluorocyclohexyl)-5-fluoropyridin-3-yl)methyl)-1H-pyrazol-4-yl)-1H-indol-3-yl)acetamide] | 5000 to 100000 nM
12 | O=C(Nc1c[nH]c2ncc(-c3cnn(-c4ccc(C(F)(F)F)cc4)c3)cc12)C1CCC1 [Compound 251, N-(5-(1-(4-(trifluoromethyl)phenyl)-1H-pyrazol-4-yl)-1H-pyrrolo[2,3-b]pyridin-3-yl)cyclobutanecarboxamide] | 5000 to 100000 nM
13 | O=C(Nc1c[nH]c2ccc(-c3cnn(Cc4ccc(C(F)(F)F)cn4)c3)cc12)C1CCC1 [Compound 253, N-(5-(1-((5-(trifluoromethyl)pyridin-2-yl)methyl)-1H-pyrazol-4-yl)-1H-indol-3-yl)cyclobutanecarboxamide] | 200 to 1000 nM
14 | O=C(Nc1c[nH]c2cnc(-c3cnn(-c4ccc(C(F)(F)F)cc4)c3)cc12)C1CCC1 [Compound 255, N-(5-(1-(4-(trifluoromethyl)phenyl)-1H-pyrazol-4-yl)-1H-pyrrolo[2,3-c]pyridin-3-yl)cyclobutanecarboxamide] | 5000 to 100000 nM
15 | CCC(=O)Nc1c[nH]c2ccc(-c3cnn(-c4ccc(C(F)(F)F)c(COC)c4)c3)cc12 [Compound 256, N-(5-(1-(3-(methoxymethyl)-4-(trifluoromethyl)phenyl)-1H-pyrazol-4-yl)-1H-indol-3-yl)propionamide] | 1000 to 5000 nM
16 | CC(c1cccc(C(F)(F)F)c1)n1cc(-c2ccc3[nH]cc(NC(=O)C4CCC4)c3c2)cn1 (stereo not drawn) [Compound 257, N-(5-(1-(1-(3-(trifluoromethyl)phenyl)ethyl)-1H-pyrazol-4-yl)-1H-indol-3-yl)cyclobutanecarboxamide] | 200 to 1000 nM
17 | O=C(Nc1c[nH]c2ccc(-c3cnn(Cc4ccc(C(F)(F)F)cc4)c3)cc12)C1CCC1 [Compound 258, N-(5-(1-(4-(trifluoromethyl)benzyl)-1H-pyrazol-4-yl)-1H-indol-3-yl)cyclobutanecarboxamide] | 40 to 200 nM
18 | O=C(Nc1c[nH]c2ccc(-c3cnn(-c4ccc(C5CC(F)(F)C5)cc4)c3)cc12)C1CCC1 [Compound 259, N-(5-(1-(4-(3,3-difluorocyclobutyl)phenyl)-1H-pyrazol-4-yl)-1H-indol-3-yl)cyclobutanecarboxamide] | 200 to 1000 nM

Now from value to molecule:

Row | EC50 | SMILES
19 | 200 to 1000 nM | CC1(C(=O)Nc2c[nH]c3ccc(-c4cnn(-c5ccc(C(F)(F)F)cc5)c4)cc23)COC1 [Compound 232, 3-methyl-N-(5-(1-(4-(trifluoromethyl)phenyl)-1H-pyrazol-4-yl)-1H-indol-3-yl)oxetane-3-carboxamide]
20 | 1000 to 5000 nM | O=C1CCC(C(=O)Nc2c[nH]c3ccc(-c4cnn(-c5ccc(C(F)(F)F)cc5)c4)cc23)=NN1 [Compound 234, 6-oxo-N-(5-(1-(4-(trifluoromethyl)phenyl)-1H-pyrazol-4-yl)-1H-indol-3-yl)-1,4,5,6-tetrahydropyridazine-3-carboxamide]
21 | 1000 to 5000 nM | N#CC1(C(=O)Nc2c[nH]c3ccc(-c4cnn(-c5ccc(C(F)(F)F)cc5)c4)cc23)CC1 [Compound 235, 1-cyano-N-(5-(1-(4-(trifluoromethyl)phenyl)-1H-pyrazol-4-yl)-1H-indol-3-yl)cyclopropane-1-carboxamide]
22 | 200 to 1000 nM | O=C(Nc1c[nH]c2ccc(-c3cnn(-c4ccc(C(F)(F)F)cc4)c3)cc12)C1CC1(F)F (stereo not drawn) [Compound 239, 2,2-difluoro-N-(5-(1-(4-(trifluoromethyl)phenyl)-1H-pyrazol-4-yl)-1H-indol-3-yl)cyclopropane-1-carboxamide]
23 | 200 to 1000 nM | O=C(Nc1c[nH]c2ccc(-c3cnn(-c4ccc(C(F)(F)F)cc4)c3)cc12)C1(F)CCC1 [Compound 241, 1-fluoro-N-(5-(1-(4-(trifluoromethyl)phenyl)-1H-pyrazol-4-yl)-1H-indol-3-yl)cyclobutane-1-carboxamide]
24 | 200 to 1000 nM | O=C(Nc1c[nH]c2ccc(-c3cnn(-c4ccc(C(F)(F)F)cc4)c3)cc12)C1CC(O)C1 (stereo not drawn) [Compound 242, 3-hydroxy-N-(5-(1-(4-(trifluoromethyl)phenyl)-1H-pyrazol-4-yl)-1H-indol-3-yl)cyclobutane-1-carboxamide]
25 | 40 to 200 nM | CC(=O)Nc1c[nH]c2ccc(-c3cnn(-c4ccc(C(F)(F)F)cc4)c3)cc12 [Compound 245, N-(5-(1-(4-(trifluoromethyl)phenyl)-1H-pyrazol-4-yl)-1H-indol-3-yl)acetamide]
26 | 1000 to 5000 nM | CN1CC(C(=O)Nc2c[nH]c3ccc(-c4cnn(-c5ccc(C(F)(F)F)cc5)c4)cc23)CC1=O (stereo not drawn) [Compound 249, 1-methyl-5-oxo-N-(5-(1-(4-(trifluoromethyl)phenyl)-1H-pyrazol-4-yl)-1H-indol-3-yl)pyrrolidine-3-carboxamide]
27 | 1000 to 5000 nM | CN1C(=O)CCC1C(=O)Nc1c[nH]c2ccc(-c3cnn(-c4ccc(C(F)(F)F)cc4)c3)cc12 (stereo not drawn) [Compound 252, 1-methyl-5-oxo-N-(5-(1-(4-(trifluoromethyl)phenyl)-1H-pyrazol-4-yl)-1H-indol-3-yl)pyrrolidine-2-carboxamide]
28 | 5000 to 100000 nM | CN1CCC1C(=O)Nc1c[nH]c2ccc(-c3cnn(-c4ccc(C(F)(F)F)cc4)c3)cc12 (stereo not drawn) [Compound 254, 1-methyl-N-(5-(1-(4-(trifluoromethyl)phenyl)-1H-pyrazol-4-yl)-1H-indol-3-yl)azetidine-2-carboxamide]
29 | 5000 to 100000 nM | O=C(Nc1c[nH]c2ccc(-c3cnn(-c4ccc(C(F)(F)F)cc4)c3)cc12)c1ncc[nH]1 [Compound 260, N-(5-(1-(4-(trifluoromethyl)phenyl)-1H-pyrazol-4-yl)-1H-indol-3-yl)-1H-imidazole-2-carboxamide]
30 | 1000 to 5000 nM | O=C(Nc1c[nH]c2ccc(-c3cnn(-c4ccc(C(F)(F)F)cc4)c3)cc12)c1cnn[nH]1 [Compound 261, N-(5-(1-(4-(trifluoromethyl)phenyl)-1H-pyrazol-4-yl)-1H-indol-3-yl)-1H-1,2,3-triazole-5-carboxamide]
31 | 200 to 1000 nM | O=C(Nc1c[nH]c2ccc(-c3cnn(-c4ccc(C(F)(F)F)cc4)c3)cc12)c1ccno1 [Compound 262, N-(5-(1-(4-(trifluoromethyl)phenyl)-1H-pyrazol-4-yl)-1H-indol-3-yl)isoxazole-5-carboxamide]
32 | 200 to 1000 nM | O=C(Nc1c[nH]c2ccc(-c3cnn(-c4ccc(C(F)(F)F)cc4)c3)cc12)c1cnco1 [Compound 263, N-(5-(1-(4-(trifluoromethyl)phenyl)-1H-pyrazol-4-yl)-1H-indol-3-yl)oxazole-5-carboxamide]
33 | 1000 to 5000 nM | N#Cc1cc(C(=O)Nc2c[nH]c3ccc(-c4cnn(-c5ccc(C(F)(F)F)cc5)c4)cc23)n[nH]1 [Compound 264, 5-cyano-N-(5-(1-(4-(trifluoromethyl)phenyl)-1H-pyrazol-4-yl)-1H-indol-3-yl)-1H-pyrazole-3-carboxamide]
